The text below walks through data of patent US20130202698A1 (NANJING SANHOME PHARMACEUTICAL CO., LTD., priority 2005, published 2013).

Marks after values point to notes of the source that are not given here.

Data set [1] can be described thus: Phase I clinical trials, intravenous, adverse events. The class given is in vivo. As to conditions: human phase I, 1.0 g, I.V., qd × 1d. As for the experimental part: The clinical trials were conducted to test if the toxicities observed in animal models would correlate with the adverse effects in humans. Double-blinded, randomized controlled human phase I and phase II clinical trials were carried out to compare L-ornidazole with racemate in both intravenous (I.V.) and oral formulations. L-ornidazole caused remarkably less adverse events (related to nervous system) than the racemate in both I.V. and oral routes. Such adverse drug events may cause non-compliance in patients being treated, which could be dangerous for life-threatening infections.

Data set [2] concerns motor balance and coordination. The data set can be described thus: Motor balance and coordination, modified beam walking method. As to conditions: mice, n=10.
Description: Motor balance and coordination were tested using a modified beam walking method. Mice were put on a smooth beam tilted at an angle of 70 degree. Mice passed the test by standing on the beam for 0.5 minute without falling off. All the mice were pre-screened before the studies, and a total of 110 mice were selected by passing the beam test in 3 consecutive tries. The selected mice were divided into 11 groups with 10 mice in each group (half male and half female). At certain time points after drug administration, mice were tested on the beam for 3 consecutive times. A mouse was counted as failing to the test if it fell off the beam for 2 or more times.
The dose volume was 0.2 mL/10 gram and infusion rate was 0.2 mL/10 seconds. Chlorpromazine was used as the positive control.

In the case of `Cc1ncc([N+](=O)[O-])n1CC(O)CCl` (racemic) [Racemic ornidazole, 1-(3-Chloro-2-hydroxypropyl)-2-methyl-5-nitroimidazole], the “# of Patients Reporting Adverse Events/Total Patients” value in data set [1] is 5/10. The “Number of Animals Fall Off” value in data set [2] (40 mg/kg, 0.5 hours post-dose) was determined as 1; in data set [2] (40 mg/kg, 1 hours post-dose) it was 0; in data set [2] (40 mg/kg, 2 hours post-dose), 0; in data set [2] (40 mg/kg, 3 hours post-dose), 0; in data set [2] (40 mg/kg, 4 hours post-dose) it was 0; in data set [2] (80 mg/kg, 0.5 hours post-dose) it was 0. Also, the “Number of Animals Fall Off” value in data set [2] (80 mg/kg, 1 hours post-dose) is 0; in data set [2] (80 mg/kg, 2 hours post-dose), 2; in data set [2] (80 mg/kg, 3 hours post-dose), 0; in data set [2] (80 mg/kg, 4 hours post-dose), 0; in data set [2] (160 mg/kg, 0.5 hours post-dose), 10##; in data set [2] (160 mg/kg, 1 hours post-dose), 8##. The “Number of Animals Fall Off” value in data set [2] (160 mg/kg, 2 hours post-dose) was determined as 6; in data set [2] (160 mg/kg, 3 hours post-dose), 4; in data set [2] (160 mg/kg, 4 hours post-dose), 3.
